Molecules are shown by their SMILES.

For the assay, the target named is T1, LXRβ (Homo sapiens, UniProt P55055).
T1 construct: Co-transfection expression plasmids, comprising full-length LXRα (pCMX-h LXRα or LXRβ (pCMX-hLXRβ)); expressed in transfected cells; host or cells: CV-1 African green monkey kidney cells, transient transfection with pCMX-hLXRβ
T1 sequence (P55055 1-460): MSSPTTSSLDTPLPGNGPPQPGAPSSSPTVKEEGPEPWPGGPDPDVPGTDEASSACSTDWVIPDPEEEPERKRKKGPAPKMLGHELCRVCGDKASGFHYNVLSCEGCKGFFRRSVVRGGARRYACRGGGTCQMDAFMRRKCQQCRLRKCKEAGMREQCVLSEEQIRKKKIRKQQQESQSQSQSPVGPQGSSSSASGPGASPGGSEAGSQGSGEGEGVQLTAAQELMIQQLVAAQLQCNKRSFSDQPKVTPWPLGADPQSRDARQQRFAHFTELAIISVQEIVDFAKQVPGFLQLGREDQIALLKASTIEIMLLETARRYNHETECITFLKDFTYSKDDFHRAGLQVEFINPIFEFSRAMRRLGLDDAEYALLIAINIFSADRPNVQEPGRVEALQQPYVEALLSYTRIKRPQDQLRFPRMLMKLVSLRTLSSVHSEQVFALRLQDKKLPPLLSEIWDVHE
T1 sequence (P19793 1-462 partner): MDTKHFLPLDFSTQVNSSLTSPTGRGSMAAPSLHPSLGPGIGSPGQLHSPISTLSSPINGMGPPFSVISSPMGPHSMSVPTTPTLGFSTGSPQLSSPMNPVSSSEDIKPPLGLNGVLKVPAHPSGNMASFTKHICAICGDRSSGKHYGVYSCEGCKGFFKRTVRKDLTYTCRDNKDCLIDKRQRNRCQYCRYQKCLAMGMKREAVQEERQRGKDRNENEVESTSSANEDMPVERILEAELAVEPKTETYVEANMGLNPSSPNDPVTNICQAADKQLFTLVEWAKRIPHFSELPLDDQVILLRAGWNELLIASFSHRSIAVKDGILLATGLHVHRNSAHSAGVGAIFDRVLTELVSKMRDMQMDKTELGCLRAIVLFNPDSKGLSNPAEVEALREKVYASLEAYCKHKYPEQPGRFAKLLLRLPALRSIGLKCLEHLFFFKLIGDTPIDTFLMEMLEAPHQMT
Briefly: LXR/LXRE co-transfection assay (luciferase reporter) in CV-1 cells, LXRβ. The class given is cell-based. The conditions noted are these: for EC50: CV-1 cells transfected with pCMX-hLXRβ and LXREx1-Tk-Luciferase, 20 hours incubation, read-out: LXRbeta agonism EC50; for Emax: CV-1 cells, relative to maximum response of high control N-(3-((4-fluorophenyl)-(naphthalene-2-sulfonyl)amino)propyl)-2,2-dimethylpropionamide, read-out: LXRbeta % EFFICACY
The method in brief:
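Luciferase read-out after 20 h compound treatment at 37 °C of CV-1 cells carrying transfected hLXRβ plus one-copy LXRE reporter, endogenous RXR partnering. Sigmoidal fit of 10-point half-log curves (4 wells each) gave EC50; % efficacy versus maximal response of the propionamide reference agonist.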
For orientation: Reporter assays use an easily measured gene product as a stand-in for the process of interest.

For orientation: EC50 means the concentration that produces a half-maximal response. As for `Cc1nc(-c2ccc3c(c2)OC(F)(F)O3)c(-c2cc(-c3cccc(S(C)(=O)=O)c3)ccc2-n2nc(C(F)(F)F)cc2Cl)o1` [Example 346, 5-(4-(5-chloro-3-(trifluoromethyl)-1H-pyrazol-1-yl)-3′-(methylsulfonyl)biphenyl-3-yl)-4-(2,2-difluorobenzo[d][1,3]dioxol-5-yl)-2-methyloxazole], the EC50 stood at 37 nM and the Emax was found to be 90%.
On to `Cc1nc(-c2ccc3c(c2)OC(F)(F)O3)c(-c2cc(-c3cc(F)c(CO)c(S(C)(=O)=O)c3)ccc2-n2nc(C(F)(F)F)cc2Cl)o1` [Example 347, (4′-(5-chloro-3-(trifluoromethyl)-1H-pyrazol-1-yl)-3′-(4-(2,2-difluorobenzo[d] [1,3]dioxol-5-yl)-2-methyloxazol-5-yl)-3-fluoro-5-(methylsulfonyl)biphenyl-4-yl)methanol], for which the EC50 came to 35 nM and the Emax was determined as 92%.
With `Cc1nc(-c2ccc(OC(F)(F)F)cc2)c(-c2cc(-c3cc(F)c(CO)c(S(C)(=O)=O)c3)ccc2-n2nc(C(F)(F)F)cc2Cl)o1` [Example 348, (4′-(5-chloro-3-(trifluoromethyl)-1H-pyrazol-1-yl)-3-fluoro-3′-(2-methyl-4-(4-(trifluoromethoxy)phenyl)oxazol-5-yl)-5-(methylsulfonyl)biphenyl-4-yl)methanol], the EC50 came to 59 nM and the Emax came out at 57%.
As to `Cc1nc(-c2ccc3c(c2)OC(F)(F)O3)c(-c2cc(-c3cc(F)c(CO)c(S(C)(=O)=O)c3)ccc2-n2ccc(C(F)(F)F)n2)o1` [Example 349, (3′-(4-(2,2-difluorobenzo[d][1,3]dioxol-5-yl)-2-methyloxazol-5-yl)-3-fluoro-5-(methylsulfonyl)-4′-(3-(trifluoromethyl)-1H-pyrazol-1-yl)biphenyl-4-yl)methanol], the EC50 amounted to 8 nM and the Emax came out at 72%.
In the case of `Cc1nc(-c2ccc3c(c2)OC(F)(F)O3)c(-c2cc(-c3cccc(S(C)(=O)=O)c3)ccc2-n2ccc(C(F)(F)F)n2)o1` [Example 350, 4-(2,2-difluorobenzo[d][1,3]dioxol-5-yl)-2-methyl-5-(3′-(methylsulfonyl)-4-(3-(trifluoromethyl)-1H-pyrazol-1-yl)biphenyl-3-yl)oxazole], the EC50 turned out to be 66 nM and the Emax was determined as 91%.
As for `Cc1nc(-c2cc(F)c(OC(F)F)c(F)c2)c(-c2cc(-c3cccc(S(C)(=O)=O)c3)ccc2-n2ccc(C(F)(F)F)n2)o1` [Example 351, 4-(4-(difluoromethoxy)-3,5-difluorophenyl)-2-methyl-5-(3′-(methylsulfonyl)-4-(3-(trifluoromethyl)-1H-pyrazol-1-yl)biphenyl-3-yl)oxazole], the half-maximal effective concentration (EC50) is 62 nM and the Emax amounted to 77%.
Take `Cc1nc(-c2cc(F)c(OC(F)F)c(F)c2)c(-c2cc(-c3cc(F)c(CO)c(S(C)(=O)=O)c3)ccc2-n2ccc(C(F)(F)F)n2)o1` [Example 352, (3′-(4-(4-(difluoromethoxy)-3,5-difluorophenyl)-2-methyloxazol-5-yl)-3-fluoro-5-(methylsulfonyl)-4′-(3-(trifluoromethyl)-1H-pyrazol-1-yl)biphenyl-4-yl)methanol]: the EC50 turned out to be 14 nM and the Emax turned out to be 76%.
As for `Cc1nc(-c2ccc(OC(F)F)nc2)c(-c2cc(-c3cccc(S(C)(=O)=O)c3)ccc2-n2ccc(C(F)(F)F)n2)o1` [Example 353, 4-(6-(difluoromethoxy)pyridin-3-yl)-2-methyl-5-(3′-(methylsulfonyl)-4-(3-(trifluoromethyl)-1H-pyrazol-1-yl)biphenyl-3-yl)oxazole], the EC50 worked out at 23 nM and the Emax was found to be 93%.
For `Cc1nc(-c2ccc(OC(F)F)nc2)c(-c2cc(-c3cc(F)c(CO)c(S(C)(=O)=O)c3)ccc2-n2ccc(C(F)(F)F)n2)o1` [Example 354, (3′-(4-(6-(difluoromethoxy)pyridin-3-yl)-2-methyloxazol-5-yl)-3-fluoro-5-(methylsulfonyl)-4′-(3-(trifluoromethyl)-1H-pyrazol-1-yl)biphenyl-4-yl)methanol], the EC50 turned out to be 10 nM and the Emax stood at 101%.
For the molecule `Cc1nc(-c2ccc(Cl)c(OC(F)F)c2)c(-c2cc(-c3cccc(S(C)(=O)=O)c3)ccc2-n2ccc(C(F)(F)F)n2)o1` [Example 355, 4-(4-chloro-3-(difluoromethoxy)phenyl)-2-methyl-5-(3′-(methylsulfonyl)-4-(3-(trifluoromethyl)-1H-pyrazol-1-yl)biphenyl-3-yl)oxazole], the EC50 was 196 nM and the Emax was 65%.
As for `Cc1nc(-c2ccc(Cl)c(OC(F)F)c2)c(-c2cc(-c3cc(F)c(CO)c(S(C)(=O)=O)c3)ccc2-n2ccc(C(F)(F)F)n2)o1` [Example 356, (3′-(4-(4-chloro-3-(difluoromethoxy)phenyl)-2-methyloxazol-5-yl)-3-fluoro-5-(methylsulfonyl)-4′-(3-(trifluoromethyl)-1H-pyrazol-1-yl)biphenyl-4-yl)methanol], the EC50 is 71 nM and the Emax stood at 63%.
Turning to `Cc1nc(-c2ccc3c(c2)OC(F)(F)O3)c(-c2cc(-c3cccc(S(C)(=O)=O)c3)ccc2-n2ccc(C(C)(C)O)n2)o1` [Example 357, 2-(1-(3-(4-(2,2-difluorobenzo[d][1,3]dioxol-5-yl)-2-methyloxazol-5-yl)-3′-(methylsulfonyl)-[1,1′-biphenyl]-4-yl)-1H-pyrazol-3-yl)propan-2-ol], the EC50 turned out to be 392 nM and the Emax came to 41%.
In the same order, the values of `Cc1nc(-c2ccc3c(c2)OC(F)(F)O3)c(-c2cc(-c3cc(F)c(CO)c(S(C)(=O)=O)c3)ccc2-n2ccc(C(C)(C)O)n2)o1` [Example 358, 2-(1-(3-(4-(2,2-difluorobenzo[d][1,3]dioxol-5-yl)-2-methyloxazol-5-yl)-3′-fluoro-4′-(hydroxymethyl)-5′-(methylsulfonyl)-[1,1′-biphenyl]-4-yl)-1H-pyrazol-3-yl)propan-2-ol] are 105 nM and 30%.
Turning to `Cc1nc(-c2ccc3c(c2)OC(F)(F)O3)c(-c2cc(-c3cccc(S(C)(=O)=O)c3)ccc2-n2ccc(C(N)=O)n2)o1` [Example 359, 1-(3-(4-(2,2-difluorobenzo[d][1,3]dioxol-5-yl)-2-methyloxazol-5-yl)-3′-(methylsulfonyl)-[1,1′-biphenyl]-4-yl)-1H-pyrazole-3-carboxamide], the EC50 was 316 nM and the Emax came to 14%.
As to `Cc1nc(-c2ccc3c(c2)OC(F)(F)O3)c(-c2cc(-c3cc(F)c(CO)c(S(C)(=O)=O)c3)ccc2-n2ccc(C(N)=O)n2)o1` [Example 360, 1-(3-(4-(2,2-difluorobenzo[d][1,3]dioxol-5-yl)-2-methyloxazol-5-yl)-3-fluoro-4′-(hydroxymethyl)-5′-(methylsulfonyl)-[1,1′-biphenyl]-4-yl)-1H-pyrazole-3-carboxamide], the EC50 was determined as 263 nM and the Emax was 12%.
For `CS(=O)(=O)c1cccc(-c2ccc(-n3ccc(C(N)=O)n3)c(-c3oc(C4CC4)nc3-c3ccc(OC(F)(F)F)cc3)c2)c1` [Example 361, 1-(3-(2-cyclopropyl-4-(4-(trifluoromethoxy)phenyl)oxazol-5-yl)-3′-(methylsulfonyl)-[1,1′-biphenyl]-4-yl)-1H-pyrazole-3-carboxamide], the EC50 was found to be 652 nM and the Emax amounted to 12%.
As for `Cc1nc(-c2ccc3c(c2)OC(F)(F)O3)c(-c2cc(-c3cccc(S(C)(=O)=O)c3)ccc2-n2ccc(C#N)n2)o1` [Example 362, 1-(3-(4-(2,2-difluorobenzo[d][1,3]dioxol-5-yl)-2-methyloxazol-5-yl)-3′-(methylsulfonyl)-[1,1′-biphenyl]-4-yl)-1H-pyrazole-3-carbonitrile], the EC50 turned out to be 64 nM and the Emax stood at 22%.
The like results for `Cc1nc(-c2ccc3c(c2)OC(F)(F)O3)c(-c2cc(-c3cccc(S(C)(=O)=O)c3)ccc2-n2ccc(CO)n2)o1` [Example 363, (1-(3-(4-(2,2-difluorobenzo[d][1,3]dioxol-5-yl)-2-methyloxazol-5-yl)-3′-(methylsulfonyl)-[1,1′-biphenyl]-4-yl)-1H-pyrazol-3-yl)methanol] were, in that order, 1520 nM and 22%.
